Test results published in patent US20260242405A1, “N-DERIVATIZED SIALIC ACIDS AND RELATED SIALOSIDES” (THE REGENTS OF THE UNIVERSITY OF CALIFORNIA, priority 2023, published 2026).
Where two headings read alike, the source gives them in different places.

Experiments:
H1N1/BR18 virus = settings: virus in egg allantoic fluid, streptavidin plates or Dynabeads
N1-BR18 = settings: read-out: KD for the interaction of N1-BR18
[1] = tested on: NAs from both IAVs and IBVs
Procedure: Enzyme-linked immunosorbent assays (ELISA). These assays were carried out in duplicates in 384-well NeutrAvidin-coated plates. The wells were washed with 3×80 μL of washing buffer (1× PBS buffer with 0.05% tween-20) and then were incubated with biotinylated glycans (10 μM, 20 μL) at 4° C. for overnight. Then the wells were washed with 3×80 μL of washing buffer and blocked with 60 μL of blocking buffer (1× PBS buffer with 0.1% BSA). The wells were then washed with 3×80 μL of washing buffer, and NA (10 μg/mL, 20 μL) was added to each well. The samples were incubated at 4° C. for 30 minutes. The wells were then washed with 3×80 μL of washing buffer, and HRP-conjugated anti-His or anti-Strep antibodies (0.1 μg/mL or with proper dilution using 1× PBS buffer with 0.1% BSA, 20 μL) were added. The samples were incubated at 4° C. for 30 minutes.

[2] = target: T1, hNEU2 (human cytosolic sialidase) (Homo sapiens, UniProt Q9Y3R4); assay: Fluorescence-based inhibition assay (substrate Neu5Acα2-3GalβMU, β-galactosidase coupled); assay type: biochemical; settings: inhibitor 8.0 μM
T1 construct: made in house

[3] = target: N2-Kan17 (IAV neuraminidase) (Influenza A virus, UniProt A0A193ACB1); assay: as above; assay type: biochemical, influenza A virus A/Kansas/14/2017 (H3N2); settings: read-out: percentage inhibition against N2-Kan17
SpNanA (sialidase) = target: T2, SpNanA (sialidase) (Streptococcus pneumoniae, UniProt P62575); assay: as above; assay type: biochemical; settings: read-out: percent inhibition against SpNanA
T2 construct: made in house

[4] = target: T3, PmST1 WT (sialidase activity of α2-3-sialyltransferase 1 in the presence of CMP) (Pasteurella multocida, UniProt Q15KI8); assay: biochemical; settings: read-out: percent inhibition against PmST1 WT
T3 construct: made in house

[5] = target: N2-Dar21 (IAV neuraminidase) (Influenza A virus, UniProt A0A193ACB1); assay: Fluorescence-based inhibition assay (substrate Neu5Acα2-3GalβMU, β-galactosidase coupled); assay type: biochemical, influenza A virus A/Darwin/9/2021 (H3N2); settings: read-out: percentage inhibition against N2-Dar21
[6] = target: N1-BR18 (IAV neuraminidase) (Influenza A virus, UniProt A0A0X9QTS2); assay: as above; assay type: biochemical, influenza A virus A/Brisbane/02/2018 (H1N1)
[7] = tested on: N1-Vic19 (IAV neuraminidase); assay: as above; assay type: biochemical, influenza A virus A/Victoria/2570/2019 (H1N1); settings: inhibitor 8.0 μM; Example 3, Table 4
[8] = target: NB-Aus21 (IBV neuraminidase) (Influenza B virus, UniProt A0A1X9RX69); assay: biochemical; set-up: species or system influenza B virus B/Austria/1359417/2021; settings: inhibitor 8.0 μM
[9] = tested on: human, bacterial, and influenza sialidases; assay: High-throughput substrate specificity assay with sialyl GalβpNPs (A405 nm); assay type: biochemical, bacteria, influenza A and B viruses
[10] = tested on: influenza NAs tested (N1-Vic19, N1-BR18, N2-Dar21, N2-Kan17, NB-NB-Aus21, NB-Phu13); assay: Fluorescence-based inhibition assay, statements on the influenza NA panel; assay type: biochemical, influenza A and B viruses; settings: for inhibition efficiency relative to 4NH2Neu5Ac2en (3), fold better: from IC50 values; for inhibitory activities against the influenza NAs tested (span over six NAs): inhibitor 8.0 μM, substrate Neu5Acα2-3GalβMU 8.0 μM; for inhibitory activity against influenza NAs, in words: Example 3 inhibition and IC50 assays
[11] = target: NB-Phu13 (IBV neuraminidase) (Influenza B virus, UniProt A0A1S5RAG6); assay: Fluorescence-based inhibition assay (substrate Neu5Acα2-3GalβMU, β-galactosidase coupled); assay type: biochemical, influenza B virus B/Phuket/3073/2013; settings: read-out: percentage inhibition against NB-Phu13
[12] = substrate Neu5Acα2-3GalβMU 8.0 μM, Example 2, Table 2, read-out: Percentage inhibition against hNEU2
[13] = Table 5, read-out: percent inhibition against hNEU2
[14] = read-out: percentage inhibition against N1-BR18, inhibitor 8.0 μM, Example 3, Table 4
[15] = substrate Neu5Acα2-3GalβMU 8.0 μM, Example 2, Table 2, read-out: Percentage inhibition against NB-Aus21 (IBV)
[16] = Example 3, Table 4, read-out: percentage inhibition against NB-NB-Aus21
[17] = high-concentration enzyme conditions (10-fold, Vc sialidase 4-fold), 1 hour
[18] = high-concentration enzyme conditions, 14 hours
[19] = read-out: Percentage inhibition against N1-BR18 (IAV), inhibitor 8.0 μM, substrate Neu5Acα2-3GalβMU 8.0 μM, Example 2, Table 2

T1 sequence (Q9Y3R4 whole entry): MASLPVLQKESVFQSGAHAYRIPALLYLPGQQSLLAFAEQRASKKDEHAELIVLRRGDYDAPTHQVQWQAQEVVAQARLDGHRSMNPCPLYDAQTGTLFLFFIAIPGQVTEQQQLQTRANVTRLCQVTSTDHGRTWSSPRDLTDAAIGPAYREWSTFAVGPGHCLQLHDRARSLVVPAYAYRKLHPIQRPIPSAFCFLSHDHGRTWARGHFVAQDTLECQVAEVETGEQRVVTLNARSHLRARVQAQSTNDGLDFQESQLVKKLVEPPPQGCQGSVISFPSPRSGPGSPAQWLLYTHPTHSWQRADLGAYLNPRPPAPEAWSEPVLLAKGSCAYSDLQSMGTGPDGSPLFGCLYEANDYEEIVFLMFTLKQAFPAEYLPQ

In the case of “4-Guanidino-Neu5Acα2-3LacNAcβPorNH-PEG4-Biotin [Compound 10d]”, the “detection and retention of H1N1/BR18 virions by immobilized ligand” value (from here on “detection and retention”) (H1N1/BR18 virus; listed as 4-Guanidino-Neu5Acα2-3LacNAcβProNH-PEG4-Biotin (10d)) is reported as “effective affinity ligand for detecting and purifying H1N1 virus”, the “detection and retention” value (H1N1/BR18 virus; listed as 4-guanidino-Neu5Acα2-3LacNAcβProNH-PEG4-Biotin (10d)) is reported as “efficient in retaining H1N1/BR18 virions” and the Kd (N1-BR18) is reported as 45.5 nM. The “binding of influenza NAs to immobilized sialoside (BLI), in words” value (from here on “binding of influenza NAs”) (influenza NAs) was “significantly stronger binders than other sialosides”.

“4N3Neu5Acα2-3GalβProNH-PEG4-Biotin [Compound 11c]” was tested, and the “suitability as affinity ligand for immobilizing NAs (ELISA)” value (“suitability as affinity ligand” for short) [1] was “not suitable affinity ligands”.

“4N3Neu5Acα2-3LacNAcβProNH-PEG4-Biotin [Compound 11d]” was tested, and the “suitability as affinity ligand” value [1] was “not suitable affinity ligands” and the “binding of influenza NAs” value (influenza NAs) was “Weak binding of N1-Vic19, N2-Dar21, and the IBV NAs”.

With “4NAcNeu5Acα2-3GalβProNH-PEG4-Biotin [Compound 12c]” the “suitability as affinity ligand” value [1] was “not suitable affinity ligands”.

“4NAcNeu5Acα2-3LacNAcβProNH-PEG4-Biotin [Compound 12d]” was tested, and the “suitability as affinity ligand” value [1] was “not suitable affinity ligands” and the “binding of influenza NAs” value (influenza NAs) was “weak binding of N1-Vic19 and N2-Dar21”.

“4NH2Neu5Acα2-3LacNAcβPorNH-PEG4-Biotin [Compound 9d]” was tested, and the “binding of influenza NAs” value (influenza NAs) was “significantly stronger binders than other sialosides”.

Work on CC(=O)N[C@@H]1C(NC(=N)N)C[C@](OC2C(O)[C@H](Oc3ccc([N+](=O)[O-])cc3)OC(CO)[C@@H]2O)(C(=O)O)OC1[C@H](O)[C@H](O)CO (stereo partly shown) [4-Guanidino-Neu5Acα2-3GalβpNP] yielded an inhibition at 8 µM [2, 12] of 0%, an inhibition at 8 µM [2, 13] of 0% and an inhibition at 8 µM [3] of 94.9%. It also gave an inhibition at 8 µM (SpNanA (sialidase)) of 0.2 ± 0.7%, an inhibition at 8 µM [4] of 26.1 ± 0.1% and an inhibition at 8 µM [5] of 97%. For the same molecule, the inhibition at 8 µM [6, 14] was 97.9%, the “percentage inhibition against N1-Vic19” value [7] was 98.2% and the inhibition at 8 µM [8, 15] was 86%. The inhibition at 8 µM [8, 16] was 84.2%, the cleavage by sialidases [9, 17] was “very poor substrates for the influenza NAs tested” and the cleavage by sialidases [9, 18] was “selectively by influenza virus NAs”. For the same molecule, the “inhibition efficiency relative to 4NH2Neu5Ac2en (3), fold better” value ([10]; against N1-Vic19 and N1-BR18) was “about 4 fold”, the “inhibition efficiency relative to 4NH2Neu5Ac2en (3), fold better” value ([10]; against N2-Kan17 and N2-Dar21) was “about 10 fold” and the “inhibitory activities against the influenza NAs tested (span over six NAs)” value [10] was 80-98%. The inhibition at 8 µM [11] was 80.1%.

Molecule CC(=O)N[C@H]1[C@H]([C@H](O)[C@H](O)CO)O[C@@](OC[C@H]2O[C@@H](Oc3ccc([N+](=O)[O-])cc3)[C@H](O)[C@@H](O)[C@H]2O)(C(=O)O)C[C@@H]1NC(=N)N [4-Guanidino-Neu5Acα2-6GalβpNP] has an inhibition at 8 µM [2, 12] of 0%, an inhibition at 8 µM [2, 13] of 0% and an inhibition at 8 µM [3] of 78%. The inhibition at 8 µM (SpNanA (sialidase)) was 6.4 ± 0.3%, the inhibition at 8 µM [4] was 31.7 ± 13.7% and the inhibition at 8 µM [5] was 81.5%. For the same molecule, the inhibition at 8 µM [6, 19] was 90%, the inhibition at 8 µM [6, 14] was 92.8% and the “percentage inhibition against N1-Vic19” value [7] was 93.1%. The inhibition at 8 µM [8, 15] was 69%, the inhibition at 8 µM [8, 16] was 66.6% and the cleavage by sialidases [9, 17] was “very poor substrates for the influenza NAs tested”. The cleavage by sialidases [9, 18] was “selectively by influenza virus NAs”, the “inhibitory activity against influenza NAs, in words” value [10] was “generally a weaker NA inhibitor than its α2-3-sialyl linked counterpart” and the “inhibitory activities against the influenza NAs tested (span over six NAs)” value [10] was 67-93%. The inhibition at 8 µM [11] was 78.9%.

Work on CC(=O)N[C@@H]1C(N)C[C@](OCC2O[C@@H](Oc3ccc([N+](=O)[O-])cc3)C(O)C(O)[C@H]2O)(C(=O)O)OC1[C@H](O)[C@H](O)CO (stereo partly shown) [4NH2Neu5Acα2-6GalβpNP] yielded an inhibition at 8 µM [2, 12] of 0%, an inhibition at 8 µM [2, 13] of 0% and an inhibition at 8 µM [3] of 1.5%. The inhibition at 8 µM (SpNanA (sialidase)) was 4.4 ± 9.6%, the inhibition at 8 µM [4] was 35.7 ± 19.9% and the inhibition at 8 µM [5] was 2.9%. For the same molecule, the inhibition at 8 µM [6, 19] was 15%, the inhibition at 8 µM [6, 14] was 0.7% and the “percentage inhibition against N1-Vic19” value [7] was 0.4%. The inhibition at 8 µM [8, 15] was 36%, the inhibition at 8 µM [8, 16] was 13.5% and the cleavage by sialidases [9, 17] was “very poor substrates for the influenza NAs tested”. For the same molecule, the cleavage by sialidases [9, 18] was “weakly cleaved off by both SpNanA and some influenza virus NAs”, the “inhibitory activity against influenza NAs, in words” value [10] was “insignificant against the N1 or N2 NAs tested” and the inhibition at 8 µM [11] was 9.8%.

“GalβProNH-PEG4-Biotin [GalβProNH-PEG4-Biotin (19), reference compound]” was tested, and the “suitability as affinity ligand” value [1] was “not suitable affinity ligands”.

“LacNAcβProNH-PEG4-Biotin [LacNAcβProNH-PEG4-Biotin (20), reference compound]” was tested, and the “detection and retention” value (H1N1/BR18 virus) was “did not retain influenza virions” and the “suitability as affinity ligand” value [1] was “not suitable affinity ligands”.
